# Experimental data reported in ChEMBL document CHEMBL1201862, “PubChem BioAssay data set” (2004).
# Calls of active or inactive are those of the source.
# Columns and labels:
# [1] = A Cell Based Assay for the Identification of Probe candidate Compounds with Anti- Venezuelan Equine Encephalitis virus. [Related pubchem assays: 2409, 2419, 1621, 2238, 2405, 2024, 2065, 2402, 2414, 1635, 1650, 2244 ]; assay type: functional
# Vero [2] = assay: cytotoxicity of synthesized analogs in Vero 76, SAR follow-up, cytotoxicity control for West Nile virus antiviral project, Vero 76 cells (AID 2414); assay type: functional, Chlorocebus sabaeus; conditions: Chlorocebus sabaeus, Vero
# [3] = biological target: T1, Ubiquitin-conjugating enzyme E2 N (Homo sapiens, UniProt P61088); assay type: functional;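 also: Dose-response confirmation in a TR-FRET assay detecting UBC13-driven polyubiquitin chain formation, inhibition measured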
# T1 sequence (P61088 whole entry): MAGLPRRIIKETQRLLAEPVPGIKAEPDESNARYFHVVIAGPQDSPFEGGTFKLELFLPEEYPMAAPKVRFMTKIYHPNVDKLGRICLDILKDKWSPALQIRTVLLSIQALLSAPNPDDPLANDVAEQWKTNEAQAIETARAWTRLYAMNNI
# [4] = biological target: DNA repair and recombination protein RAD54-like (Homo sapiens, UniProt Q92698); assay: inhibitors of human RAD54 branch migration, confirmation, biochemical, fluorescence, cherry-picked samples, dose series (AID 651657); assay type: functional
# Vero [5] = assay: cytotoxicity of synthesized analogs in Vero cells, SAR follow-up, cytotoxicity control for West Nile virus antiviral project, cell-based, set II (AID 2402); assay type: functional, Chlorocebus sabaeus; conditions: Chlorocebus sabaeus, Vero
# Vero [6] = assay: Vero E6 cell cytotoxicity, SAR follow-up, cytotoxicity control for West Nile virus antiviral project, synthesized analogs (AID 2244); assay type: functional; conditions: Chlorocebus sabaeus
# [7] = A cytotoxicity screen of small molecule inhibitors of the PhoP region in Salmonella typhi identified in the primary screen. [Related pubchem assays: 1850, 1864, 1985 ]; assay type: functional
# Ion channel NompC = Ion channel NompC (Danio rerio, UniProt Q7T1G6); assay: Fluorescence counterscreen assay for TRPML3 agonists: dose response cell-based high-throughput screening assay to identify agonists of the transient receptor potential channel N1 (TRPN1). [Related pubchem assays: 1526, 1424, 1448 ]; assay type: functional
# Ion channel NompC, sequence (Q7T1G6 whole entry): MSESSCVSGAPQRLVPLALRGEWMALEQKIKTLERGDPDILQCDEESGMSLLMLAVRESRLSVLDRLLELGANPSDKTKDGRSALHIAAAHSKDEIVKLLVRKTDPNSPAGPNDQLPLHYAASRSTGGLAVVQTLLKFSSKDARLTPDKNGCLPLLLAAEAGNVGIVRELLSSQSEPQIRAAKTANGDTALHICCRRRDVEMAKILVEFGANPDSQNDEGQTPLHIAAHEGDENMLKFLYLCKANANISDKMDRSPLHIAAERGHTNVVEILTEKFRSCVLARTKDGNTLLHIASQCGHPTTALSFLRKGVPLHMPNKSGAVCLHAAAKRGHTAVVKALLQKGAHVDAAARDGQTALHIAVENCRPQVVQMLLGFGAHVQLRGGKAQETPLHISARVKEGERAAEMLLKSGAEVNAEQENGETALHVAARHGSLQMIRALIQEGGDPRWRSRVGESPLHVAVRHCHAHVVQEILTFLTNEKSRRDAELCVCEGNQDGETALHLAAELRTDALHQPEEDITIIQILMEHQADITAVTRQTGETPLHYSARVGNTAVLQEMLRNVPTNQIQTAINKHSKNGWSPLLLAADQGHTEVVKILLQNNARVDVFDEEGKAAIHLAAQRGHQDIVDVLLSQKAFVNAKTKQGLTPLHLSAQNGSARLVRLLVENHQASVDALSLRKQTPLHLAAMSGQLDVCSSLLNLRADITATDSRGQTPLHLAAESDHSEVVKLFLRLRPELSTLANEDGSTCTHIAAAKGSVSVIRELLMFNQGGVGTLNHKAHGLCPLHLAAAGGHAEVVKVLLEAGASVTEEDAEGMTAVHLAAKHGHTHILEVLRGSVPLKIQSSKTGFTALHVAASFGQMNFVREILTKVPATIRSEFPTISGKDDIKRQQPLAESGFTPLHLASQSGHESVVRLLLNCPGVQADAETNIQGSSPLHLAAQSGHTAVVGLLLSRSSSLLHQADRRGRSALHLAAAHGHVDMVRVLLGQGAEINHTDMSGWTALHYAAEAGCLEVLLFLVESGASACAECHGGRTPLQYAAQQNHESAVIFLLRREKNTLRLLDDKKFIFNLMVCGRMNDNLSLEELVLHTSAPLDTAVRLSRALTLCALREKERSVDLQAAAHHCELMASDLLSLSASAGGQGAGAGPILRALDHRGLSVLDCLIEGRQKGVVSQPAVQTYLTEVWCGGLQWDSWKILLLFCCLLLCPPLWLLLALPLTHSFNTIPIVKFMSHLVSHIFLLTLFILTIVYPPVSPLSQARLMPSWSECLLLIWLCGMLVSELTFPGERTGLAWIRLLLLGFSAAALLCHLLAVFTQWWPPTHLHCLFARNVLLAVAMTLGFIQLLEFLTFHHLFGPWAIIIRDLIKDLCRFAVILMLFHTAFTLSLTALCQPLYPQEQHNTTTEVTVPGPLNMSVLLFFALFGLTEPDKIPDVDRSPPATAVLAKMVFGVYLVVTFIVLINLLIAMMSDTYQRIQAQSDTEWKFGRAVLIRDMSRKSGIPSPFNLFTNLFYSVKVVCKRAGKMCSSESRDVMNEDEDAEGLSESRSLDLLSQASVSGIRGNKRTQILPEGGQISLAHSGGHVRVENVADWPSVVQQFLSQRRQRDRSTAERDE
# Mucolipin-3 = Mucolipin-3 (Homo sapiens, UniProt Q8TDD5); assay: Dose response cell-based high-throughput screening assay for agonists of the transient receptor potential channel ML3 (TRPML3). [Related pubchem assays: 1526, 1424, 1448 ]; assay type: functional
# Mucolipin-3, sequence (Q8TDD5 whole entry): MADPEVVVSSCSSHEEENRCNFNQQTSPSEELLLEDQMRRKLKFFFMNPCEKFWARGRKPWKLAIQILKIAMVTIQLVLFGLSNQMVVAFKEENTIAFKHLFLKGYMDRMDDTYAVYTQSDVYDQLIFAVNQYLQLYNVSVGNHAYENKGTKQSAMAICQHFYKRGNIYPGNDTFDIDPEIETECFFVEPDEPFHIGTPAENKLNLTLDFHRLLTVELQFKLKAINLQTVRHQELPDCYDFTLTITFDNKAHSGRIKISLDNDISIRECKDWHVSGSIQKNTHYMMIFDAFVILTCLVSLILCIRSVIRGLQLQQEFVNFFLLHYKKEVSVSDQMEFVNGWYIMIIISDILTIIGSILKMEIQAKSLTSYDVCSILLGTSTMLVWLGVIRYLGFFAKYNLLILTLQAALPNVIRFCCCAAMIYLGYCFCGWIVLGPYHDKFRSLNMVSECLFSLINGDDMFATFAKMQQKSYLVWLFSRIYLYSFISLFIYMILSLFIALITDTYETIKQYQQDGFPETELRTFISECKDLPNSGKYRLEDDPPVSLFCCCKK
# [8] = biological target: Transitional endoplasmic reticulum ATPase (Homo sapiens, UniProt P55072, C522A); assay: C522A mutant p97 ATPase inhibitors, dose response, counter-screen for p97 inhibitor project, biochemical, luminescence (AID 1544)
# Transitional endoplasmic reticulum ATPase (Homo sapiens, UniProt P55072, C522A), sequence (P55072 2-806 C522A limits assumed): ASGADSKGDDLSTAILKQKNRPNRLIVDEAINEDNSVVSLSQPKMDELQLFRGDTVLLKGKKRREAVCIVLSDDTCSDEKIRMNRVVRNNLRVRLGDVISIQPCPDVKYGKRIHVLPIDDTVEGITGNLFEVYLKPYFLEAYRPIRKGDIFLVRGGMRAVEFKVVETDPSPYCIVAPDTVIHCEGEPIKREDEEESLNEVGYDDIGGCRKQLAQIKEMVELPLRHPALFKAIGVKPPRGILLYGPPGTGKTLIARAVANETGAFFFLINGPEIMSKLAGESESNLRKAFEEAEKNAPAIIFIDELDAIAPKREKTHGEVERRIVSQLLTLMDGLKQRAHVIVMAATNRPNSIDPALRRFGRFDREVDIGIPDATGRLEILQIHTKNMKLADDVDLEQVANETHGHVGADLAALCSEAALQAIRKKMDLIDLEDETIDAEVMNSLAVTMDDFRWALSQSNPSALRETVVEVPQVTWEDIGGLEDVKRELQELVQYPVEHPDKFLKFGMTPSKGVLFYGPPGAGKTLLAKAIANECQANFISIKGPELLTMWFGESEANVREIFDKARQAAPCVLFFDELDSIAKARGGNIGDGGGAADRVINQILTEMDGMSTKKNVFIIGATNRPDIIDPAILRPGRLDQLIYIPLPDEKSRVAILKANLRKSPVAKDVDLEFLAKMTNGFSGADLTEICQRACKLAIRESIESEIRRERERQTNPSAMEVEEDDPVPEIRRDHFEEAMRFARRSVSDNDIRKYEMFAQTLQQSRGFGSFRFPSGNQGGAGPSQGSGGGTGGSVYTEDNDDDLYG
# [9] = biological target: Transitional endoplasmic reticulum ATPase (Homo sapiens, UniProt P55072); assay: p97 ATPase inhibitors, dose response, biochemical (AID 1534)
# Transitional endoplasmic reticulum ATPase (Homo sapiens, UniProt P55072), sequence (P55072 whole entry): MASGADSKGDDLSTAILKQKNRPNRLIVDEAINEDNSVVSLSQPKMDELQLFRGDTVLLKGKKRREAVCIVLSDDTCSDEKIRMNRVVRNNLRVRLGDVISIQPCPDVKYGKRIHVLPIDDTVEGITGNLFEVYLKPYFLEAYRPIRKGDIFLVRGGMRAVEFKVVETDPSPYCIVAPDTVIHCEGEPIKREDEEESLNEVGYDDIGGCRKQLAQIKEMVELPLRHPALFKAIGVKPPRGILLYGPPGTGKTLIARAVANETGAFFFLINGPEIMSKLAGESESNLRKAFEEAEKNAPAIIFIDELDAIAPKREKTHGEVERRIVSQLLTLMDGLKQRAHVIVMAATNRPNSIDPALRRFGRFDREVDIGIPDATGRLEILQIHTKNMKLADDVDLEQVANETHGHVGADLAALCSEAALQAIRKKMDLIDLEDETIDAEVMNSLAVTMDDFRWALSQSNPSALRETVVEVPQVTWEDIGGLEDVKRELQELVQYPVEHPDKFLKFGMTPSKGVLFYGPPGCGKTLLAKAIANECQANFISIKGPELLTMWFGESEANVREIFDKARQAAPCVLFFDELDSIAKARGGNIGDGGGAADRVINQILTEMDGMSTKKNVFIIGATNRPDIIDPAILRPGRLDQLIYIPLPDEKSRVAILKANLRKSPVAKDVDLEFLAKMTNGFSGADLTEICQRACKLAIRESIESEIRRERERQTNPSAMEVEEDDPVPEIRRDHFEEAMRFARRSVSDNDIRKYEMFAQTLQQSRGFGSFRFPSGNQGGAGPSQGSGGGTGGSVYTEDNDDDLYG
# [10] = biological target: Induced myeloid leukemia cell differentiation protein Mcl-1 (Homo sapiens, UniProt Q07820); assay type: functional
# Induced myeloid leukemia cell differentiation protein Mcl-1, sequence (Q07820 whole entry): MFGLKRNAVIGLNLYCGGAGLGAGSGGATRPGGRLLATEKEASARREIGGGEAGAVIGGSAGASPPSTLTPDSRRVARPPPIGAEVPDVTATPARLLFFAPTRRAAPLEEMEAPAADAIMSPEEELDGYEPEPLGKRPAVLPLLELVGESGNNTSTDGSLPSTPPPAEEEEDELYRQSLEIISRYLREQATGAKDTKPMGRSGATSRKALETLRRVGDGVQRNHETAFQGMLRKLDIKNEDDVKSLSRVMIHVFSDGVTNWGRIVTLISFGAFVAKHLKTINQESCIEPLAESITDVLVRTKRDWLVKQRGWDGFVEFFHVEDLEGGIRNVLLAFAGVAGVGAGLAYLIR
# [11] = biological target: Heat shock protein HSP 90-alpha (Homo sapiens, UniProt P07900); assay type: functional, organism-based
# [12] = biological target: Glucose-6-phosphate 1-dehydrogenase (Homo sapiens, UniProt P11413); assay: human G6PD enzyme inhibitors, dose response, selectivity assay for P. falciparum G6PD inhibitor project, biochemical, fluorescence (AID 504792); assay type: functional
# Beta-galactosidase = Beta-galactosidase (Escherichia coli, UniProt Q8VNN2); assay: beta-galactosidase enzyme inhibitors and activators, dose response, artefact control for CCR6 antagonist project, biochemical, E. coli enzyme, set 3 (AID 504712); assay type: functional
# [13] = biological target: T2, RNA-binding protein pos-1 (Caenorhabditis elegans, UniProt G5EF15); assay: inhibitors of POS-1/mex-3 RNA binding, dose response, biochemical, fluorescence polarization (AID 1964);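 also: purified POS-1 fused to maltose binding protein made in E. coli; potency of compounds blocking POS-1 binding to fluorescent RNA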
# T2 sequence (G5EF15 whole entry): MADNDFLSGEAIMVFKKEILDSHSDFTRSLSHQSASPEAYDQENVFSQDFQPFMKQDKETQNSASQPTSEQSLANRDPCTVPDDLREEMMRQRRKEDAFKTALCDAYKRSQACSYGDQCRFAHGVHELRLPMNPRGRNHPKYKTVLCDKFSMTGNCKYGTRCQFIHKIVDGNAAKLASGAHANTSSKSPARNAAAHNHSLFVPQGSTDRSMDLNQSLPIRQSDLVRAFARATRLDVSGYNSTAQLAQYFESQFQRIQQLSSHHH
# [14] = biological target: G-protein coupled receptor 55 (Homo sapiens, UniProt Q9Y2T6); assay: GPR55 agonists via beta-arrestin recruitment, primary screen, imaging, U2OS cells, beta-arrestin-GFP redistribution (AID 1961); assay type: functional
# G-protein coupled receptor 55, sequence (Q9Y2T6 whole entry): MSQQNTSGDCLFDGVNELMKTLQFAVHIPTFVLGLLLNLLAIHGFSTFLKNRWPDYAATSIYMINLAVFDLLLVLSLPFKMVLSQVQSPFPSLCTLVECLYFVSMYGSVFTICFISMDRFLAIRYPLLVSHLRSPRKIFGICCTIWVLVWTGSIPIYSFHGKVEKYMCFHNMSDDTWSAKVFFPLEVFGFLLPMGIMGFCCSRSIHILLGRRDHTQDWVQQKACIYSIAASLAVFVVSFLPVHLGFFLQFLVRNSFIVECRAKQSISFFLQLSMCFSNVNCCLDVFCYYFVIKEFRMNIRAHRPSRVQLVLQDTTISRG
# [15] = biological target: T3, Zinc finger protein mex-5 (Caenorhabditis elegans, UniProt Q9XUB2); assay: MEX-5/TCR-2 RNA interaction inhibitors, dose response, biochemical, C. elegans, fluorescence polarization (AID 1960)
# T3 sequence (Q9XUB2 whole entry): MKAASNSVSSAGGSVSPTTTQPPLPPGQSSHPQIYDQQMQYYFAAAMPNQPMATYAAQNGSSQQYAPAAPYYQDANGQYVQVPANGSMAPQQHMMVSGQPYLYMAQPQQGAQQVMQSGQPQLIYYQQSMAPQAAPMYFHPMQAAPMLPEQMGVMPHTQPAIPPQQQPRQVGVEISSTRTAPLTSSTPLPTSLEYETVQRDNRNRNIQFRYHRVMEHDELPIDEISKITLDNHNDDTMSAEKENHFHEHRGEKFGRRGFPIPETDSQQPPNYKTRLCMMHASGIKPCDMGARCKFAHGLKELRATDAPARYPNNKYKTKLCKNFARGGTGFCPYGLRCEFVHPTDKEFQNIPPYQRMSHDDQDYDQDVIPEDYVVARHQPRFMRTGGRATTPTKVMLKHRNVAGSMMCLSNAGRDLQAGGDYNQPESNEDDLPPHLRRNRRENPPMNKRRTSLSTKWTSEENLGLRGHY
# Bcl-2-like protein 10 = Bcl-2-like protein 10 (Homo sapiens, UniProt Q9HD36); assay: displacers of TR3 peptide from Bcl-B, primary screen, selectivity assay for Bfl-1 inhibitor project, biochemical, fluorescence polarization, FITC-TR3 peptide (AID 748);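 also: fluorescence polarization from a fluorescein-labelled TR3 peptide binding purified Bcl-B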
# Estrogen receptor beta = Estrogen receptor beta (Homo sapiens, UniProt Q92731);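 also: recombinant ER-beta bound to coactivator SRC1 peptide in presence of estradiol agonist; inhibitors block coactivator peptide binding and lower the FRET signal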
# Caspase-6 = biological target: T4, Caspase-6 (Homo sapiens, UniProt P55212); assay: human caspase-6 inhibitors, dose response, biochemical, VEID-R110 fluorescence, cherry-pick (AID 720632)
# T4 sequence (P55212 whole entry): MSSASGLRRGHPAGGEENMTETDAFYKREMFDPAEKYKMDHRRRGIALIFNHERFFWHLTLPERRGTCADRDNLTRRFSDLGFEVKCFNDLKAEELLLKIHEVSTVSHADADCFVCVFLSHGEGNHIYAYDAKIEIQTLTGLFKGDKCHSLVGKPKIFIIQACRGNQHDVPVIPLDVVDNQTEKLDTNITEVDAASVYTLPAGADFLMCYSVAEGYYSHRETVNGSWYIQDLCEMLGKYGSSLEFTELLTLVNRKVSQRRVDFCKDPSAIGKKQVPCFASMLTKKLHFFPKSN
# cells [16] = assay type: functional, cell-based
# [17] = NIH-3T3 fibroblast cytotoxicity, dose response, cytotoxicity control, cell-based, fluorescence, Alamar Blue, secondary assay (AID 2327); assay type: functional;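 also: NIH-3T3 mouse fibroblasts cultured with fluconazole at 8 µg/mL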
# [18] = biological target: T5, Trace amine-associated receptor 1 (Homo sapiens, UniProt Q96RJ0); assay: Fluorescence-based cell-based high throughput dose response assay to identify agonists of the human trace amine associated receptor 1 (TAAR1).; assay type: functional
# T5 sequence (Q96RJ0 whole entry): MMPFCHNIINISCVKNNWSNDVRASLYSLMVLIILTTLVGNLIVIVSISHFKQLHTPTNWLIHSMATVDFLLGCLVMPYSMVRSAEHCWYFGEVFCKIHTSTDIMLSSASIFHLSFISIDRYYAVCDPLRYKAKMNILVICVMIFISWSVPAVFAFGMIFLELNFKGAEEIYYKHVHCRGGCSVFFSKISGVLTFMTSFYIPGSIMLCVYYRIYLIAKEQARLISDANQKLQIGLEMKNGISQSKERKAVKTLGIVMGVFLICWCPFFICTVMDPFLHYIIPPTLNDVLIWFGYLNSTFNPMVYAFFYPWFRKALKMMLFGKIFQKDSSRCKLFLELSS
# [19] = biological target: T5, Trace amine-associated receptor 1; assay: Counterscreen for agonists of the human trace amine associated receptor 1 (hTAAR1): Fluorescence-based cell-based high throughput dose response assay to identify hTAAR1 agonist that also desensitize TAAR1 receptor response.; assay type: functional
# [20] = cytotoxicity in MIN6 insulinoma cells, dose response, cytotoxicity control, cell-based, mouse insulinoma (AID 2122); assay type: functional;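 also: confirmatory high-throughput counterscreen run to flag cytotoxic compounds; mouse MIN-6 beta cells carrying an insulin promoter eGFP reporter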
# [21] = biological target: T6, Rac GTPase-activating protein 1 (Homo sapiens, UniProt Q9H0H5); assay: MgcRacGAP GTPase-activating activity inhibitors, confirmation, biochemical, ADP Hunter fluorescence, primary and confirmatory (AID 624330); assay type: functional
# T6 sequence (Q9H0H5 whole entry): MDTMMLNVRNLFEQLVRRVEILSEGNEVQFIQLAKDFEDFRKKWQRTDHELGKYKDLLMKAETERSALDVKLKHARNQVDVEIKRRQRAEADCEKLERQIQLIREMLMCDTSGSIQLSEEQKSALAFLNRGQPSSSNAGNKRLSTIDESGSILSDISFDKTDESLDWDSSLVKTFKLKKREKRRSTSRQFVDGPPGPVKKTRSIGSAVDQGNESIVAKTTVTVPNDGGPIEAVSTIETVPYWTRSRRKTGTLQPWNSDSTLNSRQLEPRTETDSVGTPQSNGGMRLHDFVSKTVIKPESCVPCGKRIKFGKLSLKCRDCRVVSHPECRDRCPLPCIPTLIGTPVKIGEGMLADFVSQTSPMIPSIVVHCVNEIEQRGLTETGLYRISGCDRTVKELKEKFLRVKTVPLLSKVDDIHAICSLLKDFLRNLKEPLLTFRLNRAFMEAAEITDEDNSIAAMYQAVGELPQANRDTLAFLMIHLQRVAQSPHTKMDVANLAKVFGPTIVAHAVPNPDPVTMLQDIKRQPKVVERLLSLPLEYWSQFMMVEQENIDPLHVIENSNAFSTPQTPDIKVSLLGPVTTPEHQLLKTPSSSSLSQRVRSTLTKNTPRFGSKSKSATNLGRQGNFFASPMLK
# [22] = insulin promoter down-regulators in MIN6 cells, imaging, high-content screening, mouse beta cells (AID 1628); assay type: functional
# cells [23] = assay type: functional, cell-based; remark: listed apart in the source
# [24] = HeLa cell cytotoxicity, dose response, cytotoxicity control for MgcRacGAP inhibitor project (AID 624300); assay type: functional
# Trypsin = Trypsin (Sus scrofa, UniProt P00761); assay: porcine trypsin inhibitors, dose response, selectivity assay for Rce1 protease inhibitor project, biochemical, quenched peptide fluorescence, cherry-pick (AID 488789)
# Trypsin, sequence (P00761 whole entry): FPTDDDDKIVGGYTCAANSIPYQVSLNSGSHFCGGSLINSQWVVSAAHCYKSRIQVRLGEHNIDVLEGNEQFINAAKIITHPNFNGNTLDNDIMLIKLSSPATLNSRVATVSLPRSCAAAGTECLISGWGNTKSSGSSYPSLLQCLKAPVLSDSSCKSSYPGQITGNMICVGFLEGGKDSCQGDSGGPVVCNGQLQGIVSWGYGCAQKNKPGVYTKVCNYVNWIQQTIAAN
# [25] = biological target: Polyadenylate-binding protein 1 (Homo sapiens, UniProt P11940); assay: PABP poly(A) RNA binding inhibitors, primary screen, biochemical, fluorescence polarization, uHTS (AID 2014)
# [26] = biological target: DNA dC->dU-editing enzyme APOBEC-3G (Homo sapiens, UniProt Q9HC16); assay type: functional;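 also: Dose-response counterscreen measuring inhibition of APOBEC3G DNA deaminase activity, run while confirming APOBEC3A inhibitors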
# [27] = biological target: DNA dC->dU-editing enzyme APOBEC-3A (Homo sapiens, UniProt P31941); assay: Dose Response confirmation of small molecule APOBEC3A DNA Deaminase Inhibitors via a fluorescence-based single-stranded DNA deaminase assay. [Related pubchem assays (depositor defined):AID493011, AID493024]; assay type: functional
# DNA dC->dU-editing enzyme APOBEC-3A, sequence (P31941 whole entry): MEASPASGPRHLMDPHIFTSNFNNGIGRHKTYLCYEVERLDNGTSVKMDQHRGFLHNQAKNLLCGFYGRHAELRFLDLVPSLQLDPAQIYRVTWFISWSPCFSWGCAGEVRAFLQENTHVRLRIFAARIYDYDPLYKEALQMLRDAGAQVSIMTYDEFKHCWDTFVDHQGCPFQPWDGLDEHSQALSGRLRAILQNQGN
# [28] = biological target: Eukaryotic translation initiation factor 4H (Homo sapiens, UniProt Q15056); assay: human eIF4H binding inhibitors, primary screen, translation initiation inhibitor project, biochemical, uHTS, fluorescence polarization (AID 2012)
compound,measurement,setting,value
Cc1cccc2c1-c1sc(C(=O)NCCCN3CCCC(C)C3)cc1CO2 (configuration not stated),IC50,[1],6 µM (active)
same,CC50,Vero [2],19.4 µM (active)
same,IC50,[3],> 20 µM (inactive)
same,AC50,[4],90.1 µM (active)
same,CC50,Vero [5],6.26 µM (active)
same,CC50,Vero [6],4.45 µM (active)
COc1ccc(-c2cnc(NCc3cc4c(cc3[N+](=O)[O-])OCO4)n2C)cc1,EC50,[7],> 50 µM (active)
COc1cc(S(=O)(=O)N2CCCCCC2)ccc1Cl,EC50,Ion channel NompC,> 29.9 µM (not active)
same,EC50,Mucolipin-3,1.9 µM (active)
CSC1=NSC2=NC(=O)/C(=C\c3c(C)[nH]c4ccccc34)C(=N)N12,IC50,[8],> 50 µM (not active)
same,IC50,[9],21.7 µM (not active)
Cc1ccc(NC(=O)c2cc(N3C(=O)C=CC3=O)ccc2Cl)cc1C,IC50,[10],5.4 µM (active)
same,AC50,[11],1.5 µM (active)
same,IC50,[12],50 µM (inactive)
same,IC50,Beta-galactosidase,> 66.6 µM (inactive)
CCN(CC)C(=O)CC1(c2ccccc2OC)CCOC(C(C)C)C1 (configuration not stated),EC50,Ion channel NompC,> 29.9 µM (not active)
same,EC50,Mucolipin-3,6.96 µM (active)
COc1cc2c(cc1OC)C(c1ccc(-c3ccc(Cl)cc3Cl)o1)=NCC2,EC50,[13],> 300 µM (not active)
same,EC50,[14],> 32 µM (inactive)
same,EC50,[15],> 300 µM (not active)
O=C(CSc1nc2ccccc2o1)N1c2ccccc2Sc2ccccc21,EC50,[14],> 32 µM (inactive)
O=C(N/N=C/c1c(Cl)nc2ccccn2c1=O)c1cccnc1,EC50,[7],> 50 µM (active)
O=C(Nc1ccccc1C(=O)O)c1ccccc1,IC50,Bcl-2-like protein 10,> 100 µM (inactive)
same,IC50,Estrogen receptor beta,> 50 µM (not active)
Oc1ccc(/C=N/Nc2ccnc3cc(Cl)ccc23)cc1O,IC50,[10],4.73 µM (active)
same,AC50,Caspase-6,1.61 µM (active)
same,EC50,cells [16],> 29.9 µM (inactive)
same,IC50,[8],> 50 µM (not active)
same,EC50,[17],7.32 µM (active)
same,EC50,[18],0.498 µM (active)
same,IC50,[19],2.47 µM (active)
same,IC50,[20],6.19 µM (active)
same,IC50,[21],30 µM (active)
same,IC50,[22],3.02 µM (active)
same,IC50,cells [23],> 29.9 µM (inactive)
same,IC50,[9],36.5 µM (not active)
same,CC50,[24],43.5 µM (active)
N=C(N)NC(=O)c1nc(Cl)c(N)nc1N,AC50,Trypsin,9.3 µM (active)
C[n+]1ccccc1/C=C1\Sc2ccccc2N1CCO,IC50,[25],2.22 µM (active)
same,IC50,[26],2.53 µM (active)
same,IC50,[27],1.08 µM (active)
same,IC50,[28],> 100 µM (inactive)
